Measurements as given in ChEMBL document CHEMBL1201862, “PubChem BioAssay data set” (2004).
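96-well plates; 48 h exposure; 5 concentrations. Endpoints by linear interpolation between flanking doses. Not reached: highest tested concentration assigned. GI50 is the concentration that inhibits growth by half.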 Active and inactive are the calls of the source. Cut-off read from the data, not from the text of the source: active = GI50 up to about 1.1 µM and inactive = higher.

What was measured:
Experiment in all cases: NCI anticancer screen, dose series, 48 h
786-0 = test system: 786-0
A498 = test system: A498
ACHN = test system: ACHN
BT-549 = test system: BT-549
CAKI-1 = test system: CAKI-1
CCRF-CEM = test system: CCRF-CEM
COLO 205 = test system: COLO 205
HCC 2998 = test system: HCC 2998
HCT-116 = test system: HCT-116
HL-60 = test system: HL-60
HOP-62 = test system: HOP-62
HT-29 = test system: HT-29
Hs-578T = test system: Hs-578T
IGROV-1 = test system: IGROV-1
K562 = test system: K562
M14 = test system: M14
MDA-MB-435 = test system: MDA-MB-435
MOLT-4 = test system: MOLT-4
NCI-H23 = test system: NCI-H23
NCI/ADR-RES = test system: NCI/ADR-RES
OVCAR-5 = test system: OVCAR-5
RPMI-8226 = test system: RPMI-8226
RXF 393 = test system: RXF 393
SF-268 = test system: SF-268
SF-539 = test system: SF-539
SK-MEL-28 = test system: SK-MEL-28
SK-MEL-2 = test system: SK-MEL-2
SK-OV-3 = test system: SK-OV-3
SNB-19 = test system: SNB-19
SNB-75 = test system: SNB-75
SR = test system: SR
T47D = test system: T47D
U-251 = test system: U-251
UACC-257 = test system: UACC-257
UO-31 = test system: UO-31
A549 = test system: A549
DU-145 = test system: DU-145
EKVX = test system: EKVX
HCT-15 = test system: HCT-15
HOP-92 = test system: HOP-92
KM12 = test system: KM12
LOX IMVI = test system: LOX IMVI
MCF7 = test system: MCF7
MDA-MB-231 = test system: MDA-MB-231
MDA-N = test system: MDA-N
Malme-3M = test system: Malme-3M
NCI-H226 = test system: NCI-H226
NCI-H460 = test system: NCI-H460
NCI-H522 = test system: NCI-H522
OVCAR-3 = test system: OVCAR-3
OVCAR-4 = test system: OVCAR-4
OVCAR-8 = test system: OVCAR-8
PC-3 = test system: PC-3
SF-295 = test system: SF-295
SK-MEL-5 = test system: SK-MEL-5
SN12C = test system: SN12C
SW-620 = test system: SW-620
TK-10 = test system: TK-10
UACC-62 = test system: UACC-62

Measured: GI50

CCOC(=O)C(NC(=O)Nc1ccc(C)cc1)(OCC)C(F)(F)F (configuration not stated)
inactive: 786-0 > 100 µM | A498 53.8 µM | ACHN 56.5 µM | BT-549 > 100 µM | CAKI-1 1.18 µM | CCRF-CEM > 100 µM | COLO 205 > 100 µM | HCC 2998 > 100 µM | HCT-116 > 100 µM | HL-60 64.4 µM | HOP-62 26.5 µM | HT-29 > 100 µM | Hs-578T 71.4 µM | IGROV-1 > 100 µM | K562 > 100 µM | M14 > 100 µM | MDA-MB-435 > 100 µM | MOLT-4 > 100 µM | NCI-H23 > 100 µM | NCI/ADR-RES 42.3 µM | OVCAR-5 > 100 µM | RPMI-8226 > 100 µM | RXF 393 > 100 µM | SF-268 > 100 µM | SF-539 > 100 µM | SK-MEL-28 > 100 µM | SK-MEL-2 > 100 µM | SK-OV-3 > 100 µM | SNB-19 > 100 µM | SNB-75 > 100 µM | SR 88.9 µM | T47D > 100 µM | U-251 > 100 µM | UACC-257 > 100 µM | UO-31 54.1 µM

CN1CCN(C2CC(=O)c3c(Cl)sc(Cl)c32)CC1 (configuration not stated)
inactive: 786-0 7.21 µM | A498 43.2 µM | A549 21.3 µM | ACHN 18.5 µM | BT-549 20.3 µM | CAKI-1 21.8 µM | CCRF-CEM 3.45 µM | COLO 205 20.7 µM | DU-145 12.6 µM | EKVX 23.9 µM | HCC 2998 8.87 µM | HCT-116 6.92 µM | HL-60 19.9 µM | HOP-62 19 µM | HOP-92 10.4 µM | HT-29 11.4 µM | IGROV-1 8.69 µM | K562 4.06 µM | KM12 10.8 µM | LOX IMVI 1.8 µM | M14 6.82 µM | MCF7 4.99 µM | MDA-MB-231 20 µM | MDA-MB-435 7.05 µM | MDA-N 9.02 µM | MOLT-4 5.48 µM | Malme-3M 23.9 µM | NCI-H226 > 42.8 µM | NCI-H23 9.12 µM | NCI-H460 30.6 µM | NCI-H522 4.8 µM | NCI/ADR-RES 16.4 µM | OVCAR-3 16.3 µM | OVCAR-4 14.6 µM | OVCAR-5 27.7 µM | OVCAR-8 7.66 µM | PC-3 29.4 µM | RPMI-8226 4.36 µM | SF-268 8.85 µM | SF-295 21.4 µM | SF-539 17.3 µM | SK-MEL-28 7.57 µM | SK-MEL-2 19.1 µM | SK-MEL-5 30.1 µM | SK-OV-3 > 54.6 µM | SN12C 13.2 µM | SNB-19 30.7 µM | SNB-75 14.7 µM | SR 4 µM | SW-620 7.94 µM | T47D 18.5 µM | TK-10 29 µM | U-251 11.3 µM | UACC-257 27.1 µM | UACC-62 16.3 µM | UO-31 7.6 µM
10.4 µM: HCT-15
